ChEMBL document CHEMBL1629443 (J Med Chem, 2010)
The source made the active and inactive calls. No cut-off for these calls is given here.

Experiments:
Histone deacetylase = assay: Inhibition of HDAC in human HeLa cell nuclear extracts; assay type: cell-based
[1] = Inhibition of HDAC assessed as histone H3K'9+14 acetylation levels by cell based histone H3 hyperacetylation assay
Histone deacetylase 1 = Histone deacetylase 1 (Homo sapiens, UniProt Q13547); assay: Inhibition of human recombinant HDAC1 expressed in HEK293 cells; assay type: cell-based
Sequence of Histone deacetylase 1 (Q13547 whole entry): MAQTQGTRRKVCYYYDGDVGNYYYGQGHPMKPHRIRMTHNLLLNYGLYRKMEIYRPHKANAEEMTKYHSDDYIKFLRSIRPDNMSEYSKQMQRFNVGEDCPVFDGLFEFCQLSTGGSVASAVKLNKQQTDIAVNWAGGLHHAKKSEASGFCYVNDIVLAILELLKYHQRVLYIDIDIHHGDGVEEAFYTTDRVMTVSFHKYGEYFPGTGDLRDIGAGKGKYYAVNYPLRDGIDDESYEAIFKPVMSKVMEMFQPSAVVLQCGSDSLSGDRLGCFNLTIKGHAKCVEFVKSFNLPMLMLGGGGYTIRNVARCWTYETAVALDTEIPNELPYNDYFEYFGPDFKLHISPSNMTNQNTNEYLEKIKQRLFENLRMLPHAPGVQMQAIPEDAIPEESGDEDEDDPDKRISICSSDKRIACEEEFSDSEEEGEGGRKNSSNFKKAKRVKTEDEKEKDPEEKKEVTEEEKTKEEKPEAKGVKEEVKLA

[2] = biological target: T1, Protein deacetylase HDAC6 (Homo sapiens, UniProt Q9UBN7); assay: (§1) Inhibition of human recombinant HDAC6 expressed in HEK293 cells; assay type: cell-based
T1 sequence (Q9UBN7 whole entry): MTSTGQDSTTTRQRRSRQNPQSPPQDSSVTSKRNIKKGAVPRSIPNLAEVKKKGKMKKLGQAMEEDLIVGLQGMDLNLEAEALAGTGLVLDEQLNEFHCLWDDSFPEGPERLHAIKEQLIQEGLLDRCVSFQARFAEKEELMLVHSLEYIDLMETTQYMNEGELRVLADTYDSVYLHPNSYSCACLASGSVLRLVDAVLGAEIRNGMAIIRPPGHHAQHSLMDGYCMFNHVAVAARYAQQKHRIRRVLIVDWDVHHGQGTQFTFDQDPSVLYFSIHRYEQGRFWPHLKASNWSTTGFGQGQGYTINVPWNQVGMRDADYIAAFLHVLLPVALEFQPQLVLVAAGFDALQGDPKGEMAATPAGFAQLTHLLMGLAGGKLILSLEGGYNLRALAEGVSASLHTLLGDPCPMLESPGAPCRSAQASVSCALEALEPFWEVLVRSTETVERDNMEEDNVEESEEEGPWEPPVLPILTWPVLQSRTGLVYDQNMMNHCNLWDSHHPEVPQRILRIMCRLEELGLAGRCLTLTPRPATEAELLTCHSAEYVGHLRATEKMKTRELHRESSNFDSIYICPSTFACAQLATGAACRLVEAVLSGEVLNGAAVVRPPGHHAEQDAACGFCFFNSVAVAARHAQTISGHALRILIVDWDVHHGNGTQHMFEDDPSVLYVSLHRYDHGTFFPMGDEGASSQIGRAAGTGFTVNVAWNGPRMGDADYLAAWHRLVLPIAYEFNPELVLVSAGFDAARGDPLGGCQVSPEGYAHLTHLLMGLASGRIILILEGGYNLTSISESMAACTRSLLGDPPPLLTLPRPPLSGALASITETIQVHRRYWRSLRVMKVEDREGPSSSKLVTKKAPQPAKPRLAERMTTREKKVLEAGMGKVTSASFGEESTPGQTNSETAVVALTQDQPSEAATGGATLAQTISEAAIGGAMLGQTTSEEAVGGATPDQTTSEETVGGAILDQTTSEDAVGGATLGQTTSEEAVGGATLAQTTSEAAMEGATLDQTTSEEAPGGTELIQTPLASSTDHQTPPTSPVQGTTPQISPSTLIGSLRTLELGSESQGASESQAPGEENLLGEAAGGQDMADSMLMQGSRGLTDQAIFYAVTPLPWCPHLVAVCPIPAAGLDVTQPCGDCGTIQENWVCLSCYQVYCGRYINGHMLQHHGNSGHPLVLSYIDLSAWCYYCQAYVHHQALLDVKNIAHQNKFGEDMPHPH

Histone deacetylase 3 = Histone deacetylase 3 (Homo sapiens, UniProt O15379); assay: Inhibition of Flag tagged human recombinant HDAC3 expressed in Sf21 cells coexpressing SMRT DAD domain
Sequence of Histone deacetylase 3 (O15379 whole entry, the tested form may be a part): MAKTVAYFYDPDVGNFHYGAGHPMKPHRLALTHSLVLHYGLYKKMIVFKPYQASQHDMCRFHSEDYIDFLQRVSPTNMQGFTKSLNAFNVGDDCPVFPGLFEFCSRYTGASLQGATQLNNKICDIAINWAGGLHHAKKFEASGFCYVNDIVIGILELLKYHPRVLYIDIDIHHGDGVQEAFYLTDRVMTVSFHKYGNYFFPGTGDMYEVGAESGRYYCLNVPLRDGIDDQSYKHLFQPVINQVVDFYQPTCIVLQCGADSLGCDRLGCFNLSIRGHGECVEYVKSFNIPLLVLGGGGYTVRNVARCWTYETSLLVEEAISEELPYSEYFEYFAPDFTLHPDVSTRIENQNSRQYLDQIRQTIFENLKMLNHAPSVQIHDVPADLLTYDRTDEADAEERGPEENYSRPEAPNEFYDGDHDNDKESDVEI

Histone deacetylase 8 = biological target: T2, Histone deacetylase 8 (Homo sapiens, UniProt Q9BY41); assay: Inhibition of Flag tagged human recombinant HDAC8 expressed in Sf21 cells
T2 sequence (Q9BY41 whole entry): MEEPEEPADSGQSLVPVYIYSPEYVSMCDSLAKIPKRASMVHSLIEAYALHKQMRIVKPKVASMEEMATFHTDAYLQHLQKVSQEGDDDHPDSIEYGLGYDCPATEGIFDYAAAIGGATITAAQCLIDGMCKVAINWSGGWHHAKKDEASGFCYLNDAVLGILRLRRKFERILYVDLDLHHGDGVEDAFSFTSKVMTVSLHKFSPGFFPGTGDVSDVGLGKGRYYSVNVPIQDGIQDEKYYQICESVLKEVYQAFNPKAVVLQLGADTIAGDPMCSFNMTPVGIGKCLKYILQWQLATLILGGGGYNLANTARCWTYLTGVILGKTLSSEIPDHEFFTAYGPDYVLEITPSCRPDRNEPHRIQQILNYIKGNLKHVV

[3] = biological target: T3, Epidermal growth factor receptor (Homo sapiens, UniProt P00533); assay: Inhibition of EGFR by flash plate based radioactive enzyme assay
T3 sequence (P00533 whole entry): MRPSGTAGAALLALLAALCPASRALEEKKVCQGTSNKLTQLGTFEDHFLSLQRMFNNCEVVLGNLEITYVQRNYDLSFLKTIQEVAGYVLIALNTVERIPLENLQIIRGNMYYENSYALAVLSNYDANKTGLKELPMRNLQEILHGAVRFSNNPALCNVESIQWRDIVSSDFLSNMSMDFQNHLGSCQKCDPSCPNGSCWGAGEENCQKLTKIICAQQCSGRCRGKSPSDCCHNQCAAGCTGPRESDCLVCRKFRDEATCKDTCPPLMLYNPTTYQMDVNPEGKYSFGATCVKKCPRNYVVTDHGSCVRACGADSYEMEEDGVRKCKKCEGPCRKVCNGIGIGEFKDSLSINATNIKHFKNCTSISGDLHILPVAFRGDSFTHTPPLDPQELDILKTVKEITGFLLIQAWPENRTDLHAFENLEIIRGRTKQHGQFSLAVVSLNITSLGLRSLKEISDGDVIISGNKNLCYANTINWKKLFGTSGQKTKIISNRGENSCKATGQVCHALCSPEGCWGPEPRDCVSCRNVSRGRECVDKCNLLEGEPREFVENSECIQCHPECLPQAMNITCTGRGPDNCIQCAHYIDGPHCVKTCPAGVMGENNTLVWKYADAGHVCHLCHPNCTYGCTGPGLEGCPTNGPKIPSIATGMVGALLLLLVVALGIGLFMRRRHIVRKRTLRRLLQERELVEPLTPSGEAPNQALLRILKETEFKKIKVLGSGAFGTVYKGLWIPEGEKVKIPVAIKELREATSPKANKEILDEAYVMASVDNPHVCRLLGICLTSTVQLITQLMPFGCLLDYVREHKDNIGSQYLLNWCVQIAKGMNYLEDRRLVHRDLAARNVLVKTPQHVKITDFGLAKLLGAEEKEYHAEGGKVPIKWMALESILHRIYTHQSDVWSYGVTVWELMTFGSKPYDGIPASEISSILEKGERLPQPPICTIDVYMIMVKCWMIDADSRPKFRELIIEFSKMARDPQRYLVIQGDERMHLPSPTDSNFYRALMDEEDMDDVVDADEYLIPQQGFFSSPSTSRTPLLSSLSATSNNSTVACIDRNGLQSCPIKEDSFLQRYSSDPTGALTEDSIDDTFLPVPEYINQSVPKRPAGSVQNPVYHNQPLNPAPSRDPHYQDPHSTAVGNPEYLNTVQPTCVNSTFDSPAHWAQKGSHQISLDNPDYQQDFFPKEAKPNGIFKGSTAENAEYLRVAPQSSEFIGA

[4] = biological target: Receptor tyrosine-protein kinase erbB-2 (Homo sapiens, UniProt P04626); assay: Inhibition of HER2 by flash plate based radioactive enzyme assay
[5] = biological target: Platelet-derived growth factor receptor beta (Homo sapiens, UniProt P09619); assay: Inhibition of PDGFRbeta by flash plate based radioactive enzyme assay
Sequence of Platelet-derived growth factor receptor beta (P09619 whole entry): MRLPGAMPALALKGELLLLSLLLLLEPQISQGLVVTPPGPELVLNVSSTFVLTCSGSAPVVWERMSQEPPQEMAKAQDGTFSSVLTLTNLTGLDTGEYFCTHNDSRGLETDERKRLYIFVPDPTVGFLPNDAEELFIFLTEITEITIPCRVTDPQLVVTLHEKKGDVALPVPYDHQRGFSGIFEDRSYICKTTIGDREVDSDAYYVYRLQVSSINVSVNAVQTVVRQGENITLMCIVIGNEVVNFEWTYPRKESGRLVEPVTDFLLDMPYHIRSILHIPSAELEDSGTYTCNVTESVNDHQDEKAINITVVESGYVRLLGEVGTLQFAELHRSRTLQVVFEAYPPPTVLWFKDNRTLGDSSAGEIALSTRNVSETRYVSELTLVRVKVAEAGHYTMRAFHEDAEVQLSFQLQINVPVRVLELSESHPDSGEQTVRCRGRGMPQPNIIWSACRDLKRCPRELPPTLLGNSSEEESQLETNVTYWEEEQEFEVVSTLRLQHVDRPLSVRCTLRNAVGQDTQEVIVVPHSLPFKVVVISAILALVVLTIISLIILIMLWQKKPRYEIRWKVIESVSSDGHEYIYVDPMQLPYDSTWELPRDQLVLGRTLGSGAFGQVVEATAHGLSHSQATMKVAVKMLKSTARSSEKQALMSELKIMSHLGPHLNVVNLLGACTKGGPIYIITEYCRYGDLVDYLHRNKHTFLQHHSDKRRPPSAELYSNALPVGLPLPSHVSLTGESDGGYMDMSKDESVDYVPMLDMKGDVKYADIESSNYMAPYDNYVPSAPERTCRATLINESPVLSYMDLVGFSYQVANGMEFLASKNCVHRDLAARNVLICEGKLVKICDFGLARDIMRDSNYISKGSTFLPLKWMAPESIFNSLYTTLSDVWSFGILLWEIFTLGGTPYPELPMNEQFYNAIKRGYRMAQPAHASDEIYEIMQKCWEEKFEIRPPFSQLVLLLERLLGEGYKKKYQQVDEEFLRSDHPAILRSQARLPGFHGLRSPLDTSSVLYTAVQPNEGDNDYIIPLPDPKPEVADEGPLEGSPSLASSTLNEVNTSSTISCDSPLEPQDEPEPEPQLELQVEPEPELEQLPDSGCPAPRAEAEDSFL

Insulin receptor = Insulin receptor (Homo sapiens, UniProt P06213); assay: Inhibition of INSR by flash plate based radioactive enzyme assay
[6] = biological target: Tyrosine-protein kinase ABL1 (Homo sapiens, UniProt P00519); assay: Inhibition of ABL1 by flash plate based radioactive enzyme assay
Sequence of Tyrosine-protein kinase ABL1 (P00519 whole entry): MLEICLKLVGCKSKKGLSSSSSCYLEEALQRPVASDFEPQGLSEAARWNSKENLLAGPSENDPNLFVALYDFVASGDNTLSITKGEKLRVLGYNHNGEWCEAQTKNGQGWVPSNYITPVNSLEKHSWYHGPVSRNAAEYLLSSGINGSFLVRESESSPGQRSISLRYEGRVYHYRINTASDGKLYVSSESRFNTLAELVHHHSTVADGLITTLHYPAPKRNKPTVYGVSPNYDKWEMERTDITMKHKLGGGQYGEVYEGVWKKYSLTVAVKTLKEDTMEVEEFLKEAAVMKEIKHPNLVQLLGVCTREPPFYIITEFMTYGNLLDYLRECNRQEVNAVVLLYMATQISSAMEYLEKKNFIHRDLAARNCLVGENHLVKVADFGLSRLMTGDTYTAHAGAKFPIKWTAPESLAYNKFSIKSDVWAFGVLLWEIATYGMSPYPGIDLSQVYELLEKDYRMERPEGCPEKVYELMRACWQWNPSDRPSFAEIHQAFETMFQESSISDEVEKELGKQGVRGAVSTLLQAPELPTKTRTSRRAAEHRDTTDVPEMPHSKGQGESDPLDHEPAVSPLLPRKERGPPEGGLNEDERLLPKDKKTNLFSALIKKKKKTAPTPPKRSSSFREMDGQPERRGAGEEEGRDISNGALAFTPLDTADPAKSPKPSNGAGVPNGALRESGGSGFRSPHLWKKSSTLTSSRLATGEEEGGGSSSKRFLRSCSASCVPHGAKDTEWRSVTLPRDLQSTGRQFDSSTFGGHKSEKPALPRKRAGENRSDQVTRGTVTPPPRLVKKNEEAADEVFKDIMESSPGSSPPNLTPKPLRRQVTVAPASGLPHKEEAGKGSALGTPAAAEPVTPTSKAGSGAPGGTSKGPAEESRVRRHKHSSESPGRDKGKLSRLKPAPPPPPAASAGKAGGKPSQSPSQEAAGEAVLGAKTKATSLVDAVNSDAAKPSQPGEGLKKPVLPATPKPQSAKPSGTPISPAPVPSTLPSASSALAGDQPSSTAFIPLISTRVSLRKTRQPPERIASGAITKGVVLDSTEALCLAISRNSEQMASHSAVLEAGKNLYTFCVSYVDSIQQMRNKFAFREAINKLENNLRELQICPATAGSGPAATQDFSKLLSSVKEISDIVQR

[7] = biological target: Cyclin-dependent kinase 2 (Homo sapiens, UniProt P24941); assay: Inhibition of CDK2 by flash plate based radioactive enzyme assay
[8] = Inhibition of PKA by flash plate based radioactive enzyme assay
[9] = biological target: Serine/threonine-protein kinase PLK1 (Homo sapiens, UniProt P53350); assay: Inhibition of PLK1 by flash plate based radioactive enzyme assay
Sequence of Serine/threonine-protein kinase PLK1 (P53350 whole entry): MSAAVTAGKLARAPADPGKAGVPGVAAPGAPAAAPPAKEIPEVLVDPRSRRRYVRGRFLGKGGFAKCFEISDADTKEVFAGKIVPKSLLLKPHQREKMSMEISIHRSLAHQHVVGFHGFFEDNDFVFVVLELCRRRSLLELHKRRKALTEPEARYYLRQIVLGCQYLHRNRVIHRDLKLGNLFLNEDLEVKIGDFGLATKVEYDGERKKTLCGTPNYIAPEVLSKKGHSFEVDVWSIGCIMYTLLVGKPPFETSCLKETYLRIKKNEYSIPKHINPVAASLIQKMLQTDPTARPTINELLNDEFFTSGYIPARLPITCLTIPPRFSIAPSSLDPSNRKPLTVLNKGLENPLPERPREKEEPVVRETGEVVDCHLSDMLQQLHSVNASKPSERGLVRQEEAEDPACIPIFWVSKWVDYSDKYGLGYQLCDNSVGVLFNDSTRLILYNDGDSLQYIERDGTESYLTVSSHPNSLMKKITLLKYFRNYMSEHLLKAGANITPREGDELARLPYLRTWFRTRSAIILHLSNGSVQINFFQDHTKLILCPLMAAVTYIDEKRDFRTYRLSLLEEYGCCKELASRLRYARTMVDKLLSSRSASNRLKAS

A549 = assay: Cytotoxicity against human A549 cells overexpressing HDAC by resazurin dye reduction assay
HeLa = assay: Cytotoxicity against human HeLa cells overexpressing HDAC by resazurin dye reduction assay
A-431 = assay: Cytotoxicity against human A431 cells overexpressing EGFR by resazurin dye reduction assay
CAL-27 = assay: Cytotoxicity against human CAL27 cells overexpressing EGFR by resazurin dye reduction assay
SK-BR-3 = assay: Cytotoxicity against human SKBR3 cells overexpressing HER2 by resazurin dye reduction assay
SK-OV-3 = assay: Cytotoxicity against human SKOV3 cells overexpressing HER2 by resazurin dye reduction assay; assay type: functional, cell-based
[10] = biological target: T3, Epidermal growth factor receptor; assay: Inhibition of EGF-induced EGFR phosphorylation in human CAL27 cells overexpressing EGFR after 16 hrs by Western blot; assay type: cell-based, CAL-27
[11] = biological target: Histone deacetylase (Homo sapiens) (UniProt Q13547+O15379+Q9UBN7+Q92769+Q9UQL6+Q8WUI4+Q9BY41+Q96DB2+P56524+Q9UKV0+Q969S8); conditions: CAL-27, 1 uM
Description: Inhibition of HADC in human CAL27 cells overexpressing EGFR assessed as effect on histone H2 acetylation at 1 uM after 16 hrs by Western blot

[12] = biological target: Protein deacetylase HDAC6 (Homo sapiens) (UniProt Q9UBN7); assay: as §1; assay type: cell-based

O=C(/C=C/c1ccc(-c2ccc3ncnc(Nc4ccc(OCc5cccc(F)c5)c(Cl)c4)c3c2)o1)NO
IC50 (Histone deacetylase): 630 nM | EC50 [1]: 3650 nM | IC50 (Histone deacetylase 1): 610 nM | IC50 [2]: 230 nM | IC50 (Histone deacetylase 3): 6300 nM | IC50 (Histone deacetylase 8): 11000 nM | IC50 [3]: 2.5 nM | IC50 [4]: 4.1 nM | IC50 [5]: 3300 nM | IC50 (Insulin receptor): 7340 nM | IC50 [6]: 7700 nM | IC50 [7]: 440 nM | IC50 [8]: 120000 nM | IC50 [9]: 12000 nM | IC50 (A549): 3900 nM | IC50 (HeLa): 3200 nM | IC50 (A-431): 1900 nM | IC50 (CAL-27): 820 nM | IC50 (SK-BR-3): 510 nM | IC50 (SK-OV-3): 2100 nM | IC50 [10]: < 32 nM

O=C(/C=C/c1ccc(-c2ccc3ncnc(Nc4ccc(OCc5cccc(F)c5)c(Cl)c4)c3c2)cc1)NO
IC50 (Histone deacetylase): > 32000 nM | EC50 [1]: > 10000 nM | IC50 (Histone deacetylase 1): 650 nM | IC50 [2]: 230 nM | IC50 (Histone deacetylase 3): > 32000 nM | IC50 (Histone deacetylase 8): 31000 nM | IC50 [3]: 18 nM | IC50 [4]: 12 nM | IC50 [5]: 2300 nM | IC50 (Insulin receptor): 3700 nM | IC50 [6]: 4900 nM | IC50 [7]: 850 nM | IC50 [8]: > 100000 nM | IC50 [9]: 9100 nM | IC50 (A549): 1100 nM | IC50 (HeLa): 920 nM | IC50 (A-431): 510 nM | IC50 (CAL-27): 280 nM | IC50 (SK-BR-3): 330 nM | IC50 (SK-OV-3): 1200 nM

Nc1ccccc1NC(=O)/C=C/c1ccc(-c2ccc3ncnc(Nc4ccc(OCc5cccc(F)c5)c(Cl)c4)c3c2)cc1
IC50 (Histone deacetylase): > 32000 nM | EC50 [1]: > 100000 nM | IC50 (Histone deacetylase 1): > 100000 nM | IC50 [2]: > 32000 nM | IC50 (Histone deacetylase 3): > 32000 nM | IC50 (Histone deacetylase 8): > 32000 nM | IC50 [3]: 29 nM | IC50 [4]: 15 nM | IC50 [5]: 2700 nM | IC50 (Insulin receptor): 3000 nM | IC50 [6]: 4900 nM | IC50 [7]: 1200 nM | IC50 [8]: > 100000 nM | IC50 [9]: 6200 nM | IC50 (A549): 15000 nM | IC50 (HeLa): 3100 nM | IC50 (A-431): 3600 nM | IC50 (CAL-27): 4000 nM | IC50 (SK-BR-3): 17000 nM | IC50 (SK-OV-3): 16000 nM

Nc1ccccc1NC(=O)/C=C/c1cccc(-c2ccc3ncnc(Nc4ccc(OCc5cccc(F)c5)c(Cl)c4)c3c2)c1
IC50 (Histone deacetylase): > 32000 nM | EC50 [1]: ≥ 20000 nM | IC50 (Histone deacetylase 1): > 100000 nM | IC50 [2]: > 32000 nM | IC50 (Histone deacetylase 3): > 32000 nM | IC50 (Histone deacetylase 8): > 32000 nM | IC50 [3]: 49 nM | IC50 [4]: 14 nM | IC50 [5]: 2500 nM | IC50 (Insulin receptor): 2800 nM | IC50 [6]: 2900 nM | IC50 [7]: 850 nM | IC50 [8]: > 100000 nM | IC50 [9]: 5500 nM | IC50 (A549): 27000 nM | IC50 (HeLa): 8400 nM | IC50 (A-431): 12000 nM | IC50 (CAL-27): > 16000 nM | IC50 (SK-BR-3): 50000 nM | IC50 (SK-OV-3): 36000 nM

O=C(/C=C/c1cccc(-c2ccc3ncnc(Nc4ccc(OCc5cccc(F)c5)c(Cl)c4)c3c2)c1)NO
IC50 (Histone deacetylase): 47 nM | EC50 [1]: 4700 nM | IC50 (Histone deacetylase 1): 35 nM | IC50 [2]: 86 nM | IC50 (Histone deacetylase 3): 66 nM | IC50 (Histone deacetylase 8): 630 nM | IC50 [3]: 18 nM | IC50 [4]: 11 nM | IC50 [5]: 2500 nM | IC50 (Insulin receptor): 3600 nM | IC50 [6]: 5300 nM | IC50 [7]: 920 nM | IC50 [8]: > 100000 nM | IC50 [9]: 6800 nM | IC50 (A549): 1200 nM | IC50 (HeLa): 970 nM | IC50 (A-431): 720 nM | IC50 (CAL-27): 590 nM | IC50 (SK-BR-3): 350 nM | IC50 (SK-OV-3): 1000 nM | IC50 [10]: 500 nM | inhibition [11]: Active

O=C(/C=C/c1ccc(-c2ccc3ncnc(Nc4ccc(OCc5cccc(F)c5)c(Cl)c4)c3c2)s1)NO
EC50 [1]: > 100000 nM | Emax [12]: 70% | IC50 [3]: 4.8 nM | IC50 [4]: 3.5 nM | IC50 (Insulin receptor): 1900 nM | IC50 [6]: 2700 nM | IC50 [7]: 440 nM | IC50 [8]: 35000 nM | IC50 [9]: 2700 nM | IC50 (A549): 2600 nM | IC50 (A-431): 730 nM | IC50 (CAL-27): 660 nM | IC50 (SK-OV-3): 4000 nM
